# Experimental data from US4091006A, “Esters of 3-hydroxyindone compounds” (priority 1975, dated 1978).
# Tested on: egg of the two-spotted mite
# Experiment: Mite Ovicide Test
# Type: in vivo, Tetranychus urticae (Koch)
# Parameters: key to Mite Ova rating: 1: no mortality; 3: an approximately 50% mortality; 5: 100% mortality
# Details: spray on eggs, 4 days
# Text: (§1) The test procedures were as follows:
# The plants were allowed to dry thoroughly.
# (§2) Compositions were rated on the basis of percent kill with a rating of 1 indicating no mortality; 3 signifying an approximately 50% mortality and 5 indicating 100% mortality at the indicated dosage.
row,Molecule,Mite Ova rating
1,"Cc1cc(C)c(C2=C(OC(=O)c3cc(Cl)cc(Cl)c3)c3ccccc3C2=O)c(C)c1 [3-(3,5-Dichlorobenzoyloxy)-2-(2',4',6'-trimethylphenyl)indone]",5 (100% mortality)
2,Cc1cccc(Cl)c1C1=C(OC(=O)C(C)(C)C)c2ccccc2C1=O [2-(2'-Chloro-6'-methylphenyl)-3-(pivaloyloxy)indone],5 (100% mortality)
3,"Cc1cc(C)c(C2=C(OC(=O)c3ccc(Cl)cc3Cl)c3ccccc3C2=O)c(C)c1 [3-(2,4-Dichlorobenzoyloxy)-2-(2',4',6'-trimethylphenyl)indone]",5 (100% mortality)
4,"Cc1ccc(C(=O)OC2=C(c3c(C)cc(C)cc3C)C(=O)c3ccccc32)cc1 [3-(4-Methylbenzoyloxy)-2-(2',4',6'-trimethylphenyl)indone]",5 (100% mortality)
5,CCCCC(CC)C(=O)OC1=C(c2ccccc2C)C(=O)c2ccccc21 (stereo not drawn) [3-(2-Ethylhexanoyloxy)-2-(2'-methylphenyl)indone],5 (100% mortality)
6,O=C(OC1=C(c2ccccc2)C(=O)c2ccccc21)c1ccccc1 [2-Phenyl-3-(benzoyloxy)indone],1
7,"Cc1cc(C)c(C2=C(OC(=O)c3ccco3)c3ccccc3C2=O)c(C)c1 [2-(2',4',6'-Trimethylphenyl)-3-(2-furoyloxy)indone]",5 (100% mortality)
8,CC(=O)OC1=C(c2ccccc2)C(=O)c2ccccc21 [2-Phenyl-3-(acetoxy)indone],1
9,"COc1cccc(C(=O)OC2=C(c3c(Cl)cccc3Cl)C(=O)c3ccccc32)c1 [3-(3-Methoxybenzoyloxy)-2-(2',6'-dichlorophenyl)indone]",5 (100% mortality)
10,"2-(2',6'-Dichlorophenyl)-5(6)-methyl-3-(pivaloyloxy)indone",5 (100% mortality)
11,Cc1ccccc1C1=C(OC(=O)C(C)(C)C)c2ccccc2C1=O [2-(2'-Methylphenyl)-3-(pivaloyloxy)indone],5 (100% mortality)
12,CC(C)(C)C(=O)OC1=C(c2ccccc2Br)C(=O)c2ccccc21 [2-(2'-Bromophenyl)-3-(pivaloyloxy)indone],5 (100% mortality)
13,CCCCCCCCCCCCCCCC(=O)OC1=C(c2ccccc2C)C(=O)c2ccccc21 [2-(2'-Methylphenyl)-3-(palmitoyloxy)indone],5 (100% mortality)
14,"CCCCCCCCCCCCC(=O)OC1=C(c2cc(C)ccc2C)C(=O)c2ccccc21 [2-(2',5'-Dimethylphenyl)-3-(tridecanoyloxy)indone]",5 (100% mortality)
15,"CCCCCCCCCCCCCCCCCCOC(=O)OC1=C(c2c(C)cc(C)cc2C)C(=O)c2ccccc21 [2-(2',4',6'-Trimethylphenyl)-3-(octadecyloxycarbonyloxy)indone]",5 (100% mortality)
16,"Cc1cccc(C(=O)OC2=C(c3c(Cl)cccc3Cl)C(=O)c3ccccc32)c1 [3-(3-Methylbenzoyloxy)-2-(2',6'-dichlorophenyl)indone]",5 (100% mortality)
17,"3-(Acetoxy)-4(7)-methyl-2-(2',6'-dichlorophenyl)indone",5 (100% mortality)

# Tested on: adults and nymphal stages of the two-spotted mite
# Experiment: Mite Foliage Spray Test
# Type: in vivo, Tetranychus urticae (Koch)
# Parameters: key: 1: no mortality; 3: an approximately 50% mortality; 5: 100% mortality
# Details: 4 days
# Text: as §1, §2
row,Molecule,Mite Adult rating
1,"Cc1cc(C)c(C2=C(OC(=O)c3cc(Cl)cc(Cl)c3)c3ccccc3C2=O)c(C)c1 [3-(3,5-Dichlorobenzoyloxy)-2-(2',4',6'-trimethylphenyl)indone]",5 (100% mortality)
2,Cc1cccc(Cl)c1C1=C(OC(=O)C(C)(C)C)c2ccccc2C1=O [2-(2'-Chloro-6'-methylphenyl)-3-(pivaloyloxy)indone],5 (100% mortality)
3,"Cc1cc(C)c(C2=C(OC(=O)c3ccc(Cl)cc3Cl)c3ccccc3C2=O)c(C)c1 [3-(2,4-Dichlorobenzoyloxy)-2-(2',4',6'-trimethylphenyl)indone]",5 (100% mortality)
4,"Cc1ccc(C(=O)OC2=C(c3c(C)cc(C)cc3C)C(=O)c3ccccc32)cc1 [3-(4-Methylbenzoyloxy)-2-(2',4',6'-trimethylphenyl)indone]",5 (100% mortality)
5,CCCCC(CC)C(=O)OC1=C(c2ccccc2C)C(=O)c2ccccc21 (stereo not drawn) [3-(2-Ethylhexanoyloxy)-2-(2'-methylphenyl)indone],3 (an approximately 50% mortality)
6,O=C(OC1=C(c2ccccc2)C(=O)c2ccccc21)c1ccccc1 [2-Phenyl-3-(benzoyloxy)indone],1
7,"Cc1cc(C)c(C2=C(OC(=O)c3ccco3)c3ccccc3C2=O)c(C)c1 [2-(2',4',6'-Trimethylphenyl)-3-(2-furoyloxy)indone]",5 (100% mortality)
8,CC(=O)OC1=C(c2ccccc2)C(=O)c2ccccc21 [2-Phenyl-3-(acetoxy)indone],1
9,"COc1cccc(C(=O)OC2=C(c3c(Cl)cccc3Cl)C(=O)c3ccccc32)c1 [3-(3-Methoxybenzoyloxy)-2-(2',6'-dichlorophenyl)indone]",5 (100% mortality)
10,"2-(2',6'-Dichlorophenyl)-5(6)-methyl-3-(pivaloyloxy)indone",5 (100% mortality)
11,Cc1ccccc1C1=C(OC(=O)C(C)(C)C)c2ccccc2C1=O [2-(2'-Methylphenyl)-3-(pivaloyloxy)indone],5 (100% mortality)
12,CC(C)(C)C(=O)OC1=C(c2ccccc2Br)C(=O)c2ccccc21 [2-(2'-Bromophenyl)-3-(pivaloyloxy)indone],5 (100% mortality)
13,CCCCCCCCCCCCCCCC(=O)OC1=C(c2ccccc2C)C(=O)c2ccccc21 [2-(2'-Methylphenyl)-3-(palmitoyloxy)indone],3 (an approximately 50% mortality)
14,"CCCCCCCCCCCCC(=O)OC1=C(c2cc(C)ccc2C)C(=O)c2ccccc21 [2-(2',5'-Dimethylphenyl)-3-(tridecanoyloxy)indone]",1
15,"CCCCCCCCCCCCCCCCCCOC(=O)OC1=C(c2c(C)cc(C)cc2C)C(=O)c2ccccc21 [2-(2',4',6'-Trimethylphenyl)-3-(octadecyloxycarbonyloxy)indone]",5 (100% mortality)
16,"Cc1cccc(C(=O)OC2=C(c3c(Cl)cccc3Cl)C(=O)c3ccccc32)c1 [3-(3-Methylbenzoyloxy)-2-(2',6'-dichlorophenyl)indone]",5 (100% mortality)
17,"3-(Acetoxy)-4(7)-methyl-2-(2',6'-dichlorophenyl)indone",5 (100% mortality)

# Tested on: Perennial rye grass, crabgrass, red root pigweed, mustard
# Experiment: Preliminary Herbicide Seed Germination Test
# Details: rating/maximum 15: 100 ppm only, crabgrass omitted, each rated 1 (no injury) to 5 (no seedlings emerged)
row,Molecule,Herbicide (total preemergence rating)
1,"CCCCCCCCCCCCCCCCCCOC(=O)OC1=C(c2c(C)cc(C)cc2C)C(=O)c2ccccc21 [2-(2',4',6'-Trimethylphenyl)-3-(octadecyloxycarbonyloxy)indone]",13/15

# Same assay, conditions: rating/maximum 20: 100 ppm only, four species, each rated 1 (no injury) to 5 (no seedlings emerged)
row,Molecule,Herbicide (total preemergence rating)
1,CCCCC(CC)C(=O)OC1=C(c2ccccc2C)C(=O)c2ccccc21 (stereo not drawn) [3-(2-Ethylhexanoyloxy)-2-(2'-methylphenyl)indone],4/20
2,O=C(OC1=C(c2ccccc2)C(=O)c2ccccc21)c1ccccc1 [2-Phenyl-3-(benzoyloxy)indone],4/20
3,"Cc1cc(C)c(C2=C(OC(=O)c3ccco3)c3ccccc3C2=O)c(C)c1 [2-(2',4',6'-Trimethylphenyl)-3-(2-furoyloxy)indone]",17/20
4,CCCCCCCCCCCCCCCC(=O)OC1=C(c2ccccc2C)C(=O)c2ccccc21 [2-(2'-Methylphenyl)-3-(palmitoyloxy)indone],4/20
5,"CCCCCCCCCCCCC(=O)OC1=C(c2cc(C)ccc2C)C(=O)c2ccccc21 [2-(2',5'-Dimethylphenyl)-3-(tridecanoyloxy)indone]",4/20

# Same assay, conditions: rating/maximum 30: 100 and 1000 ppm, crabgrass omitted, each rated 1 (no injury) to 5 (no seedlings emerged)
row,Molecule,Herbicide (total preemergence rating)
1,"Cc1cc(C)c(C2=C(OC(=O)c3cc(Cl)cc(Cl)c3)c3ccccc3C2=O)c(C)c1 [3-(3,5-Dichlorobenzoyloxy)-2-(2',4',6'-trimethylphenyl)indone]",23/30
2,"Cc1ccc(C(=O)OC2=C(c3c(C)cc(C)cc3C)C(=O)c3ccccc32)cc1 [3-(4-Methylbenzoyloxy)-2-(2',4',6'-trimethylphenyl)indone]",22/30
3,"COc1cccc(C(=O)OC2=C(c3c(Cl)cccc3Cl)C(=O)c3ccccc32)c1 [3-(3-Methoxybenzoyloxy)-2-(2',6'-dichlorophenyl)indone]",23/30

# Same assay, conditions: rating/maximum 40: 100 and 1000 ppm, four species, each rated 1 (no injury) to 5 (no seedlings emerged), 10-12 days
row,Molecule,Herbicide (total preemergence rating)
1,Cc1cccc(Cl)c1C1=C(OC(=O)C(C)(C)C)c2ccccc2C1=O [2-(2'-Chloro-6'-methylphenyl)-3-(pivaloyloxy)indone],33/40
2,"Cc1cc(C)c(C2=C(OC(=O)c3ccc(Cl)cc3Cl)c3ccccc3C2=O)c(C)c1 [3-(2,4-Dichlorobenzoyloxy)-2-(2',4',6'-trimethylphenyl)indone]",32/40
3,CC(=O)OC1=C(c2ccccc2)C(=O)c2ccccc21 [2-Phenyl-3-(acetoxy)indone],8/40
4,"2-(2',6'-Dichlorophenyl)-5(6)-methyl-3-(pivaloyloxy)indone",24/40
5,Cc1ccccc1C1=C(OC(=O)C(C)(C)C)c2ccccc2C1=O [2-(2'-Methylphenyl)-3-(pivaloyloxy)indone],20/40
6,CC(C)(C)C(=O)OC1=C(c2ccccc2Br)C(=O)c2ccccc21 [2-(2'-Bromophenyl)-3-(pivaloyloxy)indone],14/40
7,"Cc1cccc(C(=O)OC2=C(c3c(Cl)cccc3Cl)C(=O)c3ccccc32)c1 [3-(3-Methylbenzoyloxy)-2-(2',6'-dichlorophenyl)indone]",29/40
8,"3-(Acetoxy)-4(7)-methyl-2-(2',6'-dichlorophenyl)indone",37/40
